Data set [1] addresses Bromodomain testis-specific protein (Homo sapiens, UniProt Q58F21). The data set is described as follows: Selectivity ratio of Kd for human partial length DNA-tagged BRDT isoform b BD1 to Kd for human partial length DNA-tagged BRDT isoform b BD2.
Another data set is described as follows: physchem. Particulars: buffer, pH 7.4.
Data set [2] addresses Chromatin remodeling regulator CECR2 (Homo sapiens, UniProt Q9BXF3). The experiment in a line: Binding affinity to human partial length DNA-tagged CECR2 expressed in bacteria by BROMOscan method.
The target in data set [3] is T1, Protein polybromo-1 (Homo sapiens, UniProt Q86U86). The experiment in a line: Binding affinity to human partial length DNA-tagged PBRM1 BD1 expressed in bacteria by BROMOscan method.
T1 sequence (Q86U86 whole entry): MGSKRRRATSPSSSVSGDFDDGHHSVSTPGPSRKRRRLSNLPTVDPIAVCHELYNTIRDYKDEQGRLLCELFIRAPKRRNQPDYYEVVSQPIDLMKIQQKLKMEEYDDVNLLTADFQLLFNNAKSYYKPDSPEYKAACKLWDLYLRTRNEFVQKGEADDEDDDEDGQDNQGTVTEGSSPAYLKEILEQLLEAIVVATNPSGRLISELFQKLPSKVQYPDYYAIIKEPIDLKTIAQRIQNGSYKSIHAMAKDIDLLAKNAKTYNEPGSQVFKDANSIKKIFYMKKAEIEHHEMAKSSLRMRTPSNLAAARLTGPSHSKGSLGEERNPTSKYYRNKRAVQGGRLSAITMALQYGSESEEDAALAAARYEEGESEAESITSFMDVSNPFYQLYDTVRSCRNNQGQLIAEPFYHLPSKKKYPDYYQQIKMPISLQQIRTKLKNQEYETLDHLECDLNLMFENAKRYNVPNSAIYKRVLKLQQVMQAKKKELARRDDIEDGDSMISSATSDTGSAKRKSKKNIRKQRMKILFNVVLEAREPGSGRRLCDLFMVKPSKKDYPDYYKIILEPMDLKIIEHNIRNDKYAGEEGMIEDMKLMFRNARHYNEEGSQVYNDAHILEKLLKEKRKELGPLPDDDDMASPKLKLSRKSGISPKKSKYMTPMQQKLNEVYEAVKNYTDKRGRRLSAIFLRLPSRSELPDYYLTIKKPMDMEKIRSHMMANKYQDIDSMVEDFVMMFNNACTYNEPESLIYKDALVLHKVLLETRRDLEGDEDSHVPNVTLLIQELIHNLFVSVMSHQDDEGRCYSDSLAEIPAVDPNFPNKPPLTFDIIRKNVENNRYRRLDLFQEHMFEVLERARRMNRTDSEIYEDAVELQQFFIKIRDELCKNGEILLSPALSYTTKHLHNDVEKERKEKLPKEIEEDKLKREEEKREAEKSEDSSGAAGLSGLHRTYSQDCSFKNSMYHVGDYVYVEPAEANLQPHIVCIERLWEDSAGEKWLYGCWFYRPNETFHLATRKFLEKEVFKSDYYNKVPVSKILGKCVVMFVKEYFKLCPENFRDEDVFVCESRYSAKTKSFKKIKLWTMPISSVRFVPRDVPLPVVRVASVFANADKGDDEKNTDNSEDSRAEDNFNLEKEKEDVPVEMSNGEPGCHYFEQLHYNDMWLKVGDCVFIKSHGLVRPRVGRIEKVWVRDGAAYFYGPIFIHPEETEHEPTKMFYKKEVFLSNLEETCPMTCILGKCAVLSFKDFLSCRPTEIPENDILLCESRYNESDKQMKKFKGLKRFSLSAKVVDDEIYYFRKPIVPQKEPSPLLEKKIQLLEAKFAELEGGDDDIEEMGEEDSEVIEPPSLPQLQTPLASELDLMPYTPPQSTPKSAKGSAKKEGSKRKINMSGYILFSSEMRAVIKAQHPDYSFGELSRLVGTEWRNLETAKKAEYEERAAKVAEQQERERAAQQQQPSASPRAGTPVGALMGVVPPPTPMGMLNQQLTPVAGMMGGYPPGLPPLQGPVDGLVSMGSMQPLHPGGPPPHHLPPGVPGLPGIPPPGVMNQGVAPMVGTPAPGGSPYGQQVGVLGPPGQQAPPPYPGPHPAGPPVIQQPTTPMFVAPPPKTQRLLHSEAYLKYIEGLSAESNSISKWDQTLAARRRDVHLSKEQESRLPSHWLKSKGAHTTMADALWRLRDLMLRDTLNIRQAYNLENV
In data set [4] the target is T2, Peregrin (Homo sapiens, UniProt P55201).
T2 sequence (P55201 whole entry): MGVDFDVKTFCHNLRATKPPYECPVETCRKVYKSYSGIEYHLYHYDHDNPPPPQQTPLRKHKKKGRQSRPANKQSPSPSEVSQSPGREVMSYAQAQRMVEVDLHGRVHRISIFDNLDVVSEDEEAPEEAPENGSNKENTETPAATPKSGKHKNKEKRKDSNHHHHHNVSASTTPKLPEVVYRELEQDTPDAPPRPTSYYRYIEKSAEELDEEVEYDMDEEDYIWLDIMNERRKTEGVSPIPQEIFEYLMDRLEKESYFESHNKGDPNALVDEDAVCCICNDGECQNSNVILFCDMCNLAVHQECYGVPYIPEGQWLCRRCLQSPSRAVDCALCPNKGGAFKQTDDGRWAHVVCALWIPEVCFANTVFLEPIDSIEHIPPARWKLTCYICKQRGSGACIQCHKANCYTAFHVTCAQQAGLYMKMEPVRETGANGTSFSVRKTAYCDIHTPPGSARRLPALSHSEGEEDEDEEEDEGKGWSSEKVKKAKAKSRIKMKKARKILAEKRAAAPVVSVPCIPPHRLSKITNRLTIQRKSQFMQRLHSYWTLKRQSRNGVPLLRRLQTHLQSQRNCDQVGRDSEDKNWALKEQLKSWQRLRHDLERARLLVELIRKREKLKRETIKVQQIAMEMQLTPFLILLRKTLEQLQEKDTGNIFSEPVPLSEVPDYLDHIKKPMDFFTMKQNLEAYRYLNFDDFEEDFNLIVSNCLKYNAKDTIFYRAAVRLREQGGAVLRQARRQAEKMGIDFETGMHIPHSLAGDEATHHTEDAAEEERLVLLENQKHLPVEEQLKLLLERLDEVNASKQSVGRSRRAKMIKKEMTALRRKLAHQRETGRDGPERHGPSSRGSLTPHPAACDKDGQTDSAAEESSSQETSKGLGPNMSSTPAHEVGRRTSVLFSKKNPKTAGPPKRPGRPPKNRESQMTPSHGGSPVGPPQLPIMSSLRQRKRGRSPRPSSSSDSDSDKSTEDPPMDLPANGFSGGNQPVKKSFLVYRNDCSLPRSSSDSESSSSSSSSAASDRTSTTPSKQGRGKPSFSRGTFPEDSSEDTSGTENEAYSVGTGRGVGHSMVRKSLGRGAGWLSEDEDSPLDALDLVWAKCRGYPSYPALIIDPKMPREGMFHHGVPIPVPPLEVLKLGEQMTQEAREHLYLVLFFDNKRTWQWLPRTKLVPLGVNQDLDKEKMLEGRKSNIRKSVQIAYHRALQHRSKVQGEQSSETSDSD
The data set is described as follows: Binding affinity to human partial length DNA-tagged BRPF1 expressed in bacterial by BROMOscan method.

The target of data set [5] is T2, Peregrin. The data set is described as follows: Displacement of Alexa 647 ligand from 6H-Flag-Tev-BRPF1 (622 to 738 residues) (unknown origin) expressed in Escherichia coli BL21 (DE3) cells after 30 mins by TR-FRET assay. (In general: Time-resolved FRET reads energy transfer from a long-lived donor to a nearby acceptor.)
In data set [6] the target is T1, Protein polybromo-1. The experiment in a line: Binding affinity to human partial length DNA-tagged PBRM1 BD5 expressed in bacteria by BROMOscan method.
The target of data set [7] is T3, Bromodomain-containing protein 3 (Homo sapiens, UniProt Q15059). The experiment in a line: Inhibition of BRD3 BD1 (unknown origin) after 30 mins by TR-FRET assay.
Target sequence in this assay (Q15059 whole entry): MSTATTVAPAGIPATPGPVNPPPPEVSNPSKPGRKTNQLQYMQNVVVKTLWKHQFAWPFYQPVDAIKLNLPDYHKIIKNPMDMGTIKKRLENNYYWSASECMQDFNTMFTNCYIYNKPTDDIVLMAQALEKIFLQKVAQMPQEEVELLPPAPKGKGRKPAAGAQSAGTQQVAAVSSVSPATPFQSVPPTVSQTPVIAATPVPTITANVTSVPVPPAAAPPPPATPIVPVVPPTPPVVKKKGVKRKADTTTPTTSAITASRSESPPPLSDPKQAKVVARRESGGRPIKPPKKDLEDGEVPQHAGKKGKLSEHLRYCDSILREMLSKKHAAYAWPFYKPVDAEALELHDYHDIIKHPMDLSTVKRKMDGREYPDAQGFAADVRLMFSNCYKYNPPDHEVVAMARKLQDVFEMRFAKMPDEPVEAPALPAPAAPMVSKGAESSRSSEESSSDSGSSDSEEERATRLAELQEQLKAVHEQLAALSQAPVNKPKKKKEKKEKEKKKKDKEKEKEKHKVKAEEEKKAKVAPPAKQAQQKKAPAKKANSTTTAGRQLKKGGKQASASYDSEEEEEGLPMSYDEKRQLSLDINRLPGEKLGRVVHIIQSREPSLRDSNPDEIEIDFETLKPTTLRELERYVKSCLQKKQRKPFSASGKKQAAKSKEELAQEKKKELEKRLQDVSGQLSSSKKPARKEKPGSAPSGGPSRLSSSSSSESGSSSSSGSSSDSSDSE
In data set [8] the target is Bromodomain-containing protein 4 (Homo sapiens, UniProt O60885, Y97A).
Data set [9] concerns the target T3, Bromodomain-containing protein 3. The data set is described as follows: Binding affinity to human partial length DNA-tagged BRD3 BD2 expressed in bacterial by BROMOscan method.
Target sequence in this assay (Q15059 whole entry): as above
Data set [10] has the same target. The experiment in a line: Selectivity ratio of Kd for human partial length DNA-tagged BRD3 BD1 to Kd for human partial length DNA-tagged BRD3 BD2.
Target sequence in this assay (Q15059 2-726 limits assumed): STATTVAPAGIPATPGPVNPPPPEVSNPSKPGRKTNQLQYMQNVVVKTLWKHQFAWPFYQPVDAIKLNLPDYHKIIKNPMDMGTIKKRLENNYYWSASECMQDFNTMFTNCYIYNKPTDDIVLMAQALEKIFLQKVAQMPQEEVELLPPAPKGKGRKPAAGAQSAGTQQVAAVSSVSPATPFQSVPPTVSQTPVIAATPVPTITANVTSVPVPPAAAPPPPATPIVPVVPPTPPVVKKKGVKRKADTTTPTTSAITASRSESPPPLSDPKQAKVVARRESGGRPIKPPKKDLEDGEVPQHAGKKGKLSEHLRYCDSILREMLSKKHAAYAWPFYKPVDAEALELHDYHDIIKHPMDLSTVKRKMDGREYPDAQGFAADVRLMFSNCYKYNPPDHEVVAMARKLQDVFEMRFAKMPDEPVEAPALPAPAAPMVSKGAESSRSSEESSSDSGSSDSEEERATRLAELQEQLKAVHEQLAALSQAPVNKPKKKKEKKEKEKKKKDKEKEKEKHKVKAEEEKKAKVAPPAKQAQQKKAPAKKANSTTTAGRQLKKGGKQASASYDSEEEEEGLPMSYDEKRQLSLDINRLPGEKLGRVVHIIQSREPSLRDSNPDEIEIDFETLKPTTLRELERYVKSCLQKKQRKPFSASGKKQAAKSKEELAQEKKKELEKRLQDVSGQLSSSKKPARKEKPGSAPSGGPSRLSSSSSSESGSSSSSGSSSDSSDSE
The target in data set [11] is Bromodomain-containing protein 8 (Homo sapiens, UniProt Q9H0E9). The data set is described as follows: Binding affinity to DNA-tagged BRD8 (unknown origin) by BROMOscan method.
Sequence of Bromodomain-containing protein 8 (Q9H0E9 whole entry): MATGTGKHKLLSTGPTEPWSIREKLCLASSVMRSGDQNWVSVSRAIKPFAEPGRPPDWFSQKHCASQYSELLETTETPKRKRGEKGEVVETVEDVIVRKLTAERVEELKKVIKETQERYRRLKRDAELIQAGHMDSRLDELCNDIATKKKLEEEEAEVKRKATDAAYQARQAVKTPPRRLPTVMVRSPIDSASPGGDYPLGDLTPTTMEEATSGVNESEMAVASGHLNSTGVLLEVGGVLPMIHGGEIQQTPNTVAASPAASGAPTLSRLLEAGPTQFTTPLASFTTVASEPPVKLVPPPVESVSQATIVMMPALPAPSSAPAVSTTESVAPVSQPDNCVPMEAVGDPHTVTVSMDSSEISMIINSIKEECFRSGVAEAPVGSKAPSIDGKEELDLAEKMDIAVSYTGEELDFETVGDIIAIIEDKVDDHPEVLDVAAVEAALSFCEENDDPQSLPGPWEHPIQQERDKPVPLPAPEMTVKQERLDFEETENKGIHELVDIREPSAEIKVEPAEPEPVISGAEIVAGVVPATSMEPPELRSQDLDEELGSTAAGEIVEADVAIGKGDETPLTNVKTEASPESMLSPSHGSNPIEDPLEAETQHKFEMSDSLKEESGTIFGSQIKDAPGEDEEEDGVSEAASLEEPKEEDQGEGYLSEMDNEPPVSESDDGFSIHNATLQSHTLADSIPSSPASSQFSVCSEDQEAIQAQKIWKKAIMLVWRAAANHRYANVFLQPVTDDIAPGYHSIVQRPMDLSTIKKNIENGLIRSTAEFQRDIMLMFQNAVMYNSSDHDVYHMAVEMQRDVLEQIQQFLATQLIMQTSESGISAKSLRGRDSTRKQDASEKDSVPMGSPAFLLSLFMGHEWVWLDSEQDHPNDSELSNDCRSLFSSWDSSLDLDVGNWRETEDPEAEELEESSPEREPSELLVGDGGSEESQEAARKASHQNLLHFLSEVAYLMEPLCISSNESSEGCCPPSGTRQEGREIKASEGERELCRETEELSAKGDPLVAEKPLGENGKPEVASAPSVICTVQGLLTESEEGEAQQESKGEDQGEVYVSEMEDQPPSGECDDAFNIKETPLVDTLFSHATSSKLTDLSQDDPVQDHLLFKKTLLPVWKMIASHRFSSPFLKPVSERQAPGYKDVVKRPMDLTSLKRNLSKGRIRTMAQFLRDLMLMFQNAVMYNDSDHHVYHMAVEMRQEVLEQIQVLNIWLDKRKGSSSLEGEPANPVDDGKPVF
In data set [12] the target is Transcription intermediary factor 1-alpha (Homo sapiens, UniProt O15164). The data set is described as follows: Binding affinity to human partial length DNA-tagged TRIM24(PHD,Bromo.) expressed in bacteria by BROMOscan method.
A short description of data set [13]: Solubility of the compound in FaSSIF at pH 6.5 after 16 hrs by HPLC method. The format is physicochemical.
The nature of data set [14]: Solubility of the compound in pH 7.4 phosphate buffered saline by chemiluminescent nitrogen detection method. The format is physicochemical.
The test system of another data set is PBMC. The data set is described as follows: cells. Particulars: Homo sapiens, read-out: pIC50 (converted).

Results on one compound are retold here after ChEMBL document CHEMBL4184317, “Discovery of Tetrahydroquinoxalines as Bromodomain and Extra-Terminal Domain (BET) Inhibitors with Selectivity for the Second Bromodomain” (J Med Chem, 2018).

Structures are written as SMILES. pIC50, pKd: −log10 of the molar value. In brackets after ≈: the same amount, converted by molar mass.

By chromatographic logD is commonly meant lipophilicity estimated from chromatographic retention. Lower therefore signals lower lipophilicity. A word on the pKd: it is the negative decadic logarithm of the Kd, by convention in mol/L. Low readings indicate a high Kd, high ones a low Kd. A word on the pIC50: it is −log10 of the IC50, conventionally taken in molar units. A low value points to a large IC50. A word on the solubility: it is the dissolved amount per volume that the medium holds. High values mean much dissolved substance, low ones little dissolved substance.

Description for PBMC: Antiinflammatory activity in human PBMC assessed as inhibition of LPS-induced MCP1 release preincubated for 30 mins followed by LPS challenge measured after 24 hrs by immunoassay
Description for physchem: Chromatographic hydrophobicity index, log D of the compound at pH 7.4 by HPLC method

On to `CC(=O)N1c2ccc(C3=CCNCC3)cc2N(Cc2ccccc2CO)C[C@@H]1C1CC1`, for which the values for the Selectivity ratio in [1] and in data set [10] were 91 and 47, respectively. The compound also had a chromatographic logD in “physchem” of 2.3. Also, the pKd in data set [2] is < 4.52; on Protein polybromo-1 [3], < 4.52; on Peregrin [4], 5.61; on Protein polybromo-1 [6] it was < 4.52; in [9], 7.71; in data set [11], < 4.52. Further, the pKd in data set [12] was < 4.52. Further, the values for the pIC50 (on Peregrin [5]; in data set [7]; in data set [8]) were 4.70, 5.90 and 7.20, respectively. In [13], this compound came in with a solubility at 16 h of 386 µg/mL (≈ 924 µM). Also, the solubility in [14] is ≥ 418 µM. In addition, the IC50 in the data set with PBMC was 0.0398 µM.
